From patent US7771977B2, “Alkane polyol dehydrogenase” (National University Corporation Nara Institute of Science …, priority 2006, dated 2010)

Columns and labels:
[1] = system: alkane polyol dehydrogenase (purified enzyme); type: biochemical, Pichia ofunaensis; conditions: purified enzyme; substrate 100 mM; 2 mM NAD+; pH 8.0; 25° C.
Description: The reaction solutions were prepared using plural substrates with varied concentrations. Each solution contained a substrate, 2 mM NAD^+, and an enzyme, and was allowed to react in a 100 mM potassium phosphate buffer solution (pH 8.0) at 25° C. Then, changes in absorbance (molar absorption coefficient 6,220 M^−1·cm^−1) at 340 nm due to the NADH formation were measured. 1 U is defined as an enzyme amount for catalyzing 1 μmol NADH formation per minute.
The alkane polyol dehydrogenase obtained in Example 1 was utilized to measure the enzyme activities in the following manner.
1 U was defined as the amount of enzyme that catalyzes the formation of 1 μmol of NADH per minute.
Measurement was performed in the same manner as in the activity measurements described earlier in 4-1.
Such activity was measured by causing a reaction mixture containing 5 mM (R)-1,2-octanediol, 2 mM NAD^+ and enzyme to react in a 100 mM potassium phosphate buffer solution (pH 8.0) at 25° C., then observing the change, due to NADH formation, of absorbance (molecular absorption coefficient 6,220 M^−1 ·cm^−1) at 340 nm. 1 U was defined as the amount of enzyme that catalyzes the formation of 1 μmol of NADH per minute.

[2] = system: Pichia ofunaensis AKU4328 cells; assay: Glycerol dehydrogenation activity of glycerol-induced Pichia ofunaensis cells; type: biochemical
Source text: Pichia ofunaensis AKU4328 was pre-cultured in medium containing 4 g/L of ammonium chloride, 1 g/L of phosphoric acid 2 hydrogen 1 potassium, 1 g/L of phosphoric acid 1 hydrogen 2 potassium, 0.5 g/L of magnesium sulfate 7 hydrate, 1 g/L of yeast extract, and 1% glucose. Ten hours after the initiation of the main culture in induction medium consisting of a basal medium with 1% glycerol, the cells were harvested. Since the specific activity of glycerol was 3.6 U/mg (protein), it was confirmed that the same protein as the purified enzyme obtained in Example 1 was expressed by 7%.
In relation to the measurement of the enzyme activity, a reaction mixture containing a […] ammonium chloride/ammonia buffer (pH 9.0), 100 mM glycerol, 2.0 mM NAD^+ and an enzyme solution was subjected to a reaction at 25° C.; subsequently, the change, due to NADH formation, of absorbance (molecular absorption coefficient 6,220 M^−1 ·cm^−1) at 340 nm was measured. 1 U refers to the amount of enzyme that catalyzes the formation of 1 μmol of NADH per minute. […]
The activity at this time was measured by causing a reaction mixture containing a 100 mM ammonium chloride/ammonia buffer (pH 9.0), 100 mM glycerol, 2.0 mM NAD^+ and an enzyme solution to react at 25° C., then observing the change, due to NADH formation, of absorbance (molecular absorption coefficient 6,220 M^−1·cm^−1) at 340 nm. […]

[3] = Enzyme activity of purification fractions with 100 mM glycerol; type: biochemical, Pichia ofunaensis; conditions: 2 mM NAD+, pH 8.0, 25° C., purification step
Description: The entire purification process was performed at 4° C., unless otherwise indicated. The cells (20 g wet cell weight) prepared as above in 1-1, were suspended in buffer solution A (100 mM potassium phosphate buffer solution (pH 7.0) and 1 mM dithiothreitol (hereinafter simply referred to as DTT)). The resulting suspension was mixed with 100 ml of glass beads, and disrupted with a bead beater (produced by BioSpec, Bartlesville, USA).
The obtained cell extract was allowed to adsorb to a DEAE-cellulose column (diameter 4.0 cm×height 3.5 cm, produced by Wako Pure Chemical Ind. Ltd., Osaka) that was pre-equilibrated with buffer solution A. Thereafter, the gradient of 0-1 M potassium chloride was applied to buffer solution A to elute protein at a flow rate of 1 ml/min.
The eluted active fractions were collected, and dialyzed against buffer solution A containing 40% saturated ammonium sulfate. […]
In connection with the enzyme activity, a reaction mixture containing 100 mM glycerol, 2 mM NAD^+ and enzyme was allowed to react in a 100 mM potassium phosphate buffer solution (pH 8.0) at 25° C.; subsequently, the change, due to NADH formation, of absorbance (molar absorption coefficient 6,220 M^−1·cm^−1) at 340 nm was measured and analyzed. […]

Molecule | Oxidative Activity [1] [U/mg] | specific activity of the cells against glycerol ([2]; 1% glycerol induction, 100 mM glycerol, 2.0 mM NAD+, pH 9.0, 25° C.) | glycerol dehydrogenation activity per 1 kg of wet cell weight ([2]; per 1 kg wet cell weight) | Specific Activity [3] [U/mg]
OCC(O)CO [Glycerol] | 39.1 | 3.6 U/mg (protein) | 1,300,000 U | –
Superdex 200: purified alkane polyol dehydrogenase of Pichia ofunaensis (SEQ ID NO: 1) after Superdex 200 gel filtration (protein, listed as Pichia ofunaensis) MKGLLYYKTGDIRYSEDVEEPEILSSHDVKIRVKFCGICGTDLKEYTYEGGPLFLPKPGSSDKISGLELPLCPGHEFCGVVEEVGESVTRVKPGDRVAVEATTHCSDAVHYGVHDMELCVACKNGSPNCCTHLSFCGLGGASGGFAEKVVYGEEHMLKLPDSIPFDIGALIEPLAVAWHAVECAKFKPGSTALVLGGGPIGLATILALQGHQAGRIVCSEPACIRREYAAKFGAEVFDPSQHDDVIHELKALLPENGGFDASFDCSGVPQTFTTSIEALAPGGMAVNVAIWGDHAIDFGAMCLTYQEKTCTGSMCYTVKDFEEVINALDKGLISISKARLMITGKVNLKDGVELGFKQLIEHKETNIKILVTPDEV | – | – | – | 51
